Measured values: patent US10966995B2, “Use of secoisolariciresinol diglucosides (SDGS) and related compounds for protection against radiation and chemical damage” (THE TRUSTEES OF THE UNIVERSITY OF PENNSYLVANIA, priority 2014, dated 2021)

Experiments:
[1] = Hypochlorite-induced chlorination of 2-aminopurine (2-AP)
Description: (§1) 2-AP in PBS was exposed to hypochlorite and fluorescence spectra recorded between 360-390 nm with the emission maximum at 374 nm. The % change in 2-AP calculated.

[2] = test system: mouse lung epithelial cells; assay: Apoptosis detection by western blotting (Bax, Bcl-2, cleaved caspase-3, cleaved PARP); format: cell-based; conditions: SDG pre-treated vs irradiated cells
Experimental: Apoptosis was determined in mouse lung epithelial cells by levels of Bax (an apoptosis promoter), Bcl-2 (an apoptosis inhibitor), cleaved caspase-3, and cleaved poly (adenosine diphosphate-ribose) polymerase (PARP) seen using immunoblotting. Briefly, cells were lysed in PBS containing protease inhibitors. Immunoblot analysis of cell lysates was then performed using 10 well SDS 12% NuPAGE gel (Invitrogen, Carlsbad Calif.). Electrophoresis was performed at 200V for 1 hour. Transfer to PolyScreen PV transfer membrane (PerkinElmer Life Sciences, Boston, Mass.) was performed for 1 hour at 25 volts. Membrane was blocked overnight in 5% non-fat dry milk in phosphate buffered saline. The non-fat dry milk was then discarded and the membrane was incubated with primary antibody. Protein levels of Bax, Bcl-2, cleaved caspase-3, and cleaved PARP were detected using manufacturer recommended dilutions (Cell Signaling Technology, Danvers, Mass.) using rabbit anti-mouse monoclonal antibody against BAX and Bcl-2, and rabbit anti-mouse cleaved caspase-3 (Asp175), monoclonal antibody and a rabbit polyclonal anti-cleaved PARP (214/215) cleavage site specific antibody. The membrane was washed five times and then incubated in secondary antibody conjugated to horseradish peroxidase for 45 minutes at room temperature. Membranes were developed using Western Lighting Chemiluminescence Reagent Plus (PerkinElmer Life Sciences, Boston, Mass.) and quantified by densitometry scanning of specific bands (20 kDa for Bax, 26 kDa for Bcl-2, 17/19 kDa for cleaved caspase-3, and 89 kDa for cleaved PARP) that were adjusted for loading using β-actin expression level detected by specific secondary antibody (Sigma, St. Louis, Mo.).

[3] = test system: mouse RAW macrophages; assay: Asbestos-induced ROS in RAW macrophages; format: cell-based
Experimental: (§2) SDG blunts asbestos-induced ROS secretion by human mesothelial cells in vitro (FIG. 50). Experimental plan for detecting asbestos-induced ROS in cells: (human mesothelial) HM cells or mouse macrophages plated in 20% DMEM for 24 hours; Added 20 μM DCF in HBSS for 1 hour; Supernatant replaced with 1% DMEM containing H2O2 (100 μM), asbestos (10 μg crocidolite/cm^2) and/or SDG (50 μM); and Fluorescence level monitored up to 36 hours post-initiation of asbestos exposure.
Asbestos-Induced Oxidative Stress (ROS release) in Culture RAW Macrophages was evaluated. Cells were treated with the ROS-sensitive dye H2DCFDA for 30 min and then they were exposed to vehicle to 40 μg/cm2 asbestos fibers, or 4 uM hypochlorite solution and fluorescence intensity was measured spectrophotometrically for 90, 150 minutes and 27 hours. Asbestos-induced ROS was generated shortly post asbestos exposure and continued for the duration of the observation period (FIG. 51).

[4] = test system: human epithelial cells (A549); assay: BaP-induced oxidative DNA damage (8-oxo-dGuo, mass spectrometry); format: cell-based; conditions: SDG 10 μM; 25 μM BaP; 3 and 6 hours post carcinogen exposure
[5] = test system: murine primary lung fibroblasts; assay: γ-H2AX foci immunostaining, fibroblasts; format: cell-based, mouse; conditions: SDG 50 μM 6 h prior IR; 2 Gy; irradiated control 30.0% at 30 min
Experimental: (§3) Fibroblasts and endothelial cells were isolated from C57/bl6 mouse. For fibroblast isolation, mouse lungs were harvested, minced, and incubated with dispase (2 mg/ml) for 45 minutes. Pieces were plated out and fibroblasts were cultured as described previously and used between passages 3 and 10. Pulmonary microvascular endothelial cells (PMVEC) were isolated from murine lungs as described previously. Briefly, freshly harvested mouse lungs were treated with collagenase followed by isolation of cells by adherence to magnetic beads coated with mAb to platelet endothelial cell adhesion molecule (PECAM). Epithelial cells (C10) cells were originally derived from a normal BALB/c mouse lung explant and are non-tumorigenic, contact-inhibited, and have alveolar type 2 cell features at early passage.
(§4) For immunostaining of γ-H2AX, cells were plated on glass coverslips (5,000 cells/coverslip), pre-treated (6 h) with 50 μM SDG and irradiated (2 Gy). At desired time interval, cells were fixed (4% para-formaldehyde), washed and blocked with PBST (PBS+0.1% TritonX-100 containing 5% goat serum, 1% BSA). Cells were incubated with γ-H2AX primary antibody (1:200) overnight at 4° C. followed by washing with PBST (3×5 min) and incubation with secondary antibody (Alexa Fluor® 488, Invitrogen, Calif., USA) for 1 hr at RT. Nuclei were counterstained with DAPI and visualized under fluorescence microscope.

[6] = Hypochlorite scavenging with APF/HPF fluorescent probes (sodium hypochlorite); conditions: commercially available SDG; FIG. 15B
Experimental: (§5) The fluorescence of ROS probes APF and HPF in PBS was measured at excitation/emission at 490 nm/515 nm in presence of hypochlorite or after γ-radiation exposure. Data is expressed as relative fluorescence units (RFU).

[7] = γ-Radiation-induced chlorination of 2-AP
Description: as §1
To determine whether radiation induces nucleobase chlorination, we used the same system as above, namely 2-AP fluorescence (FIG. 19A).

[8] = test system: murine primary lung epithelial cells; assay: γ-H2AX foci immunostaining, epithelial cells; format: cell-based, mouse; conditions: SDG 50 μM 6 h prior IR; 2 Gy; irradiated control 46.7% at 30 min
Experimental: as §3, §4

[9] = test system: human mesothelial cells; assay: Asbestos-induced ROS (DCF fluorescence) in human mesothelial cells; format: cell-based; conditions: asbestos 10 μg crocidolite/cm^2 or H2O2 100 μM; SDG 50 μM
Experimental: as §2

[10] = Scavenging of γ-radiation-induced hypochlorite (APF/HPF fluorescence in PBS)
Experimental: as §5

[11] = test system: human epithelial cells; assay: BaP-induced DNA adduct formation; format: cell-based; conditions: given alone or in combination
Description: Similarly, SDG prevents genotoxic stress in human epithelial cells exposed to BaP. Exposure of cells to a potent carcinogen such as BaP, induces genotoxic stress as indicated by increased levels of p53 protein (FIG. 25). […] SDG also prevents oxidative DNA damages in human epithelial cells exposed to BaP. Exposure of cells to a potent carcinogen such as BaP, induces oxidative DNA damage as indicated by increased levels of gamma-H2AX, a marker for double-stranded DNA breaks (FIG. 26). […] Furthermore, SDG prevents DNA adduct formation in human epithelial cells exposed to BaP. Exposure of cells to a potent carcinogen such as BaP, induces the formation of DNA adducts (FIG. 27). DNA adducts are pieces of DNA covalently linked to a carcinogen and is directly linked to the development of malignancy. The DNA adduct levels is decreased by the presence of SDG or its metabolites ED and EL given alone or in combination.

Compound: COc1cc(C[C@@H](CO[C@@H]2O[C@H](CO)[C@@H](O)[C@H](O)[C@H]2O)[C@H](CO[C@@H]2O[C@H](CO)[C@@H](O)[C@H](O)[C@H]2O)Cc2ccc(O)c(OC)c2)ccc1O [SDG, secoisolariciresinol diglucoside]
- Hypochlorite-induced decrease of 2-AP fluorescence, pre-treatment ([1]; 10 μM hypochlorite, SDG pre-treatment 60 seconds): prevented
- Hypochlorite-induced 2-AP modification, post-treatment ([1]; SDG added +15 to +300 seconds after ClO^−): significant recovery
- Bax protein levels [2]: trended towards decreased levels
- Bcl-2 protein levels [2]: trended towards decreased levels
- Cleaved PARP levels ([2]; 6, 24, 48 hours post-IR): trended towards decreased levels
- Cleaved caspase-3 levels ([2]; 6, 24, 48 hours post-IR): trended towards decreased levels
- Asbestos-induced ROS [3]: blocks asbestos-induced ROS
- Oxidative DNA damage (8-oxo-dGuo) [4]: decreased DNA damage
- γ-H2AX positive cells [5]: 22.1%±1.9
- ClO^− scavenging [6]: decreased ClO^− dose-dependently
- γ-radiation-induced decrease in 2-AP fluorescence intensity [7]: prevented
- γ-H2AX positive cells [8]: 22.7%±2.17
- ROS levels [9]: significantly lowers ROS levels to baseline levels
- Ratio APF/HPF [10]: decreased
- ClO^− generation from radiation exposure ([10]; 25 and 50 Gy): blunted
- γ-radiation-induced APF and HPF fluorescence ([10]; 50 Gy): dose-dependently decreased
- Initial slope for decrease of APF fluorescence ([10]; 50 Gy, SDG dose response): 1,816.30
- Initial slope for decrease of HPF fluorescence ([10]; 50 Gy, SDG dose response): 695.75
- DNA adduct levels [11]: decreased
